Laboratory results as given in US5595903A (priority 1989, dated 1997).

B1: BuChE from human serum: Purified BuChE from human serum (protein, UniProt P06276 29-602, looked up)
Cholinesterase: EDDIIIATKNGKVRGMNLTVFGGTVTAFLGIPYAQPPLGRLRFKKPQSLTKWSDIWNATKYANSCCQNIDQSFPGFHGSEMWNPNTDLSEDCLYLNVWIPAPKPKNATVLIWIYGGGFQTGTSSLHVYDGKFLARVERVIVVSMNYRVGALGFLALPGNPEAPGNMGLFDQQLALQWVQKNIAAFGGNPKSVTLFGESAGAASVSLHLLSPGSHSLFTRAILQSGSFNAPWAVTSLYEARNRTLNLAKLTGCSRENETEIIKCLRNKDPQEILLNEAFVVPYGTPLSVNFGPTVDGDFLTDMPDILLELGQFKKTQILVGVNKDEGTAFLVYGAPGFSKDNNSIITRKEFQEGLKIFFPGVSEFGKESILFHYTDWVDDQRPENYREALGDVVGDYNFICPALEFTKKFSEWGNNAFFYYFEHRSSKLPWPEWMGVMHGYEIEFVFGLPLERRDNYTKAEEILSRSIVKRWANFAKYGNPNETQNNSTSWPVFKSTEQKYLTLNTESTRIMTKLRAQQCRFWTSFFPKVLEMTGNIDEAEWEWKAGFHRWNNYMMDWKNQFNDYTSKKESCVGL

Assays:
[1] = target: T1, AChE (Homo sapiens, UniProt P22303); experiment: biochemical; assay type: biochemical
T1 sequence (P22303 32-614): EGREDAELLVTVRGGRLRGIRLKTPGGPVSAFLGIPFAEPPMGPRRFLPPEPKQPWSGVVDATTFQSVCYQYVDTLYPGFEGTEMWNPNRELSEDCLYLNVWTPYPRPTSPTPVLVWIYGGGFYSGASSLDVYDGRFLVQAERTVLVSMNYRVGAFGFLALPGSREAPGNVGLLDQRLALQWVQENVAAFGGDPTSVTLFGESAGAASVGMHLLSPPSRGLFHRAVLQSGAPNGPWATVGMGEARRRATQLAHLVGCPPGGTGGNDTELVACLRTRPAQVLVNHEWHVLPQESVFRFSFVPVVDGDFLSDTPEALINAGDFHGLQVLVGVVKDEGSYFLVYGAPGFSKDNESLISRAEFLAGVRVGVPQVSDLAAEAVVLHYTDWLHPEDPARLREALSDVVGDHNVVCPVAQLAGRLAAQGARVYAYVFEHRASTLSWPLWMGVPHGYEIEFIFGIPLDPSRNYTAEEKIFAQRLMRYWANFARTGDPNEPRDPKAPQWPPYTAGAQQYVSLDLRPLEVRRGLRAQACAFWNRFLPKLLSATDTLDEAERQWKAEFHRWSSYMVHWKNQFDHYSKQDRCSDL

[2] = target: T1, AChE; assay type: biochemical
[3] = target: ChE (Homo sapiens, UniProt P06276); assay type: biochemical
[4] = human, in vivo; cited from earlier work

Molecule	AcThCho degraded [1] [pmol/hr per ng mRNA]	remaining activity at 10 µM [1] [%]	sensitivity of tumor mRNA-induced AChE activity to selective inhibitor [2]	sensitivity of oocyte-produced enzyme to inhibition (in words) [1]	sensitivity of tumor mRNA-induced ChE activity to selective inhibitor [3]	effect on symptoms of OP-intoxicated patients [4]
C=CC[N+](C)(C)c1ccc(CCC(=O)CCc2ccc([N+](C)(C)CC=C)cc2)cc1 [BW284C51, 1,5-bis-(4-allyldimethylammoniumphenyl)-pentan-3-one dibromide]	3 ± 1	1 ± 0.3	sensitive			
CC(C)NP(=O)(NC(C)C)OP(=O)(NC(C)C)NC(C)C [iso-OMPA, tetraisopropylpyrophosphoramide]	280 ± 10	98 ± 3		totally insensitive	sensitive	
B1						improve the symptoms
